pEC50: −log10 of the molar value. Each block holds one compound with its values, some of them ahead of it. The source made the active and inactive calls.
What was measured:
SUMO E1/E2 = SUMO E1/E2 (Homo sapiens, UniProt P63279+Q9UBE0+Q9UBT2); test: SAR analysis of SUMOylation using HTRF in an in-Vitro dose response assay. [Related pubchem assays (depositor defined):AID2006, AID2011, AID2018, AID2069, AID2658]; type: functional
[1] = target: T1, Intestinal-type alkaline phosphatase (Homo sapiens, UniProt P09923); test: human IAP activators, dose response, biochemical, luminescent, uHTS hits, set 2 (AID 488817); type: functional;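 also: potency of activators that raise enzyme activity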
[2] = target: Nucleotide-binding oligomerization domain-containing protein 1 (Homo sapiens, UniProt Q9Y239); test: NOD1 signaling inhibitors, SAR follow-up, revised (AID 2333); type: functional
[3] = target: T1, Intestinal-type alkaline phosphatase; test: human intestinal alkaline phosphatase activators, dose response, biochemical, luminescence, uHTS hits (AID 463120); type: functional
HEK293 = test: cells; conditions: Homo sapiens;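 also: cells exposed to compound for 14 hours overnight before viability readout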
[4] = target: T2, Alkaline phosphatase, tissue-nonspecific isozyme (Homo sapiens, UniProt P05186); test: TNAP enzyme activators, dose response, selectivity assay for human IAP activator project, biochemical, TNAP isozyme, human IAP uHTS hits (AID 488886); type: functional;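 also: potency of compounds raising TNAP activity as a selectivity check on IAP activators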
T2 sequence (P05186 whole entry): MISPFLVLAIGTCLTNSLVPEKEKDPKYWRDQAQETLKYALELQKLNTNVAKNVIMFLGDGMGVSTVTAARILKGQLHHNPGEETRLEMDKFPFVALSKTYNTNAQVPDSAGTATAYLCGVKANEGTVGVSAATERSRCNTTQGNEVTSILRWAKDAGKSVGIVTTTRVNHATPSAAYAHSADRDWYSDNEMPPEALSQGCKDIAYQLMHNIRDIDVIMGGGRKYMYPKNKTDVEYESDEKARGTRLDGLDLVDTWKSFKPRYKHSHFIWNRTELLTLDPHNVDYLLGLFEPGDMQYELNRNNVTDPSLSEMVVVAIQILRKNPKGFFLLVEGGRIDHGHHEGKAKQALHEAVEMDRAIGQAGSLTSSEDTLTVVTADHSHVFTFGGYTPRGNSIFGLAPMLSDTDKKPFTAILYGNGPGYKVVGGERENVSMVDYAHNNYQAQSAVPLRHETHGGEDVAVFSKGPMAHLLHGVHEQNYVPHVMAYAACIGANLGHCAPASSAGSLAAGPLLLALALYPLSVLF

Tumor necrosis factor = Tumor necrosis factor (Homo sapiens, UniProt P01375); test: TNFa-triggered NF-kB activation inhibitors, SAR follow-up, cell-based, revised (AID 2337); type: functional
[5] = target: Intestinal-type alkaline phosphatase (Mus musculus, UniProt P24822); test: PubChem AID 488874; type: functional
[6] = target: Nucleotide-binding oligomerization domain-containing protein 2 (Homo sapiens, UniProt Q9HC29); test: PubChem AID 2334; type: functional
[7] = Late-stage results from the probe development effort to identify antagonists of the Sphingosine 1-Phosphate Receptor 4 (S1P4): luminescence-based cell-based dose response assay to determine cytotoxicity of antagonist compounds. [Related pubchem assays (depositor defined):AID1510, AID1524, AID1564, AID1692, AID1821, AID1853, AID2332, AID2346, AID2349, AID2350, AID2351, AID2354]; type: functional
[8] = target: Sphingosine 1-phosphate receptor 1 (Homo sapiens, UniProt P21453); test: Late stage counterscreen assay for S1P4 antagonists: Fluorescence dose response cell-based screening assay for antagonists of the Sphingosine 1-Phosphate Receptor 1 (S1P1). [Related pubchem assays (depositor defined):AID1510, AID1524, AID1692, AID1853, AID2332, AID489009, AID489017]; type: functional
[9] = target: Sphingosine 1-phosphate receptor 2 (Homo sapiens, UniProt O95136); test: Late stage counterscreen assay for S1P4 antagonists: Fluorescence dose response cell-based screening assay for antagonists of the Sphingosine 1-Phosphate Receptor 2 (S1P2). [Related pubchem assays (depositor defined):AID1510, AID1524, AID1692, AID1853, AID2332, AID489009, AID489017]; type: functional
[10] = target: Sphingosine 1-phosphate receptor 5 (Homo sapiens, UniProt Q9H228); test: Late stage counterscreen assay for S1P4 antagonists: Fluorescence dose response cell-based screening assay for antagonists of the Sphingosine 1-Phosphate Receptor 5 (S1P5). [Related pubchem assays (depositor defined):AID1510, AID1524, AID1692, AID1853, AID2332, AID489009, AID489017]; type: functional
[11] = target: Sphingosine 1-phosphate receptor 3 (Homo sapiens, UniProt Q99500); test: Late stage counterscreen assay for S1P4 antagonists: Fluorescence dose response cell-based screening assay for antagonists of the Sphingosine 1-Phosphate Receptor 3 (S1P3). [Related pubchem assays (depositor defined):AID1510, AID1524, AID1692, AID1853, AID2332, AID489009, AID489017]; type: functional
[12] = target: T3, Tyrosine-protein phosphatase non-receptor type 22 (Homo sapiens, UniProt Q9Y2R2); type: functional
T3 sequence (Q9Y2R2 whole entry): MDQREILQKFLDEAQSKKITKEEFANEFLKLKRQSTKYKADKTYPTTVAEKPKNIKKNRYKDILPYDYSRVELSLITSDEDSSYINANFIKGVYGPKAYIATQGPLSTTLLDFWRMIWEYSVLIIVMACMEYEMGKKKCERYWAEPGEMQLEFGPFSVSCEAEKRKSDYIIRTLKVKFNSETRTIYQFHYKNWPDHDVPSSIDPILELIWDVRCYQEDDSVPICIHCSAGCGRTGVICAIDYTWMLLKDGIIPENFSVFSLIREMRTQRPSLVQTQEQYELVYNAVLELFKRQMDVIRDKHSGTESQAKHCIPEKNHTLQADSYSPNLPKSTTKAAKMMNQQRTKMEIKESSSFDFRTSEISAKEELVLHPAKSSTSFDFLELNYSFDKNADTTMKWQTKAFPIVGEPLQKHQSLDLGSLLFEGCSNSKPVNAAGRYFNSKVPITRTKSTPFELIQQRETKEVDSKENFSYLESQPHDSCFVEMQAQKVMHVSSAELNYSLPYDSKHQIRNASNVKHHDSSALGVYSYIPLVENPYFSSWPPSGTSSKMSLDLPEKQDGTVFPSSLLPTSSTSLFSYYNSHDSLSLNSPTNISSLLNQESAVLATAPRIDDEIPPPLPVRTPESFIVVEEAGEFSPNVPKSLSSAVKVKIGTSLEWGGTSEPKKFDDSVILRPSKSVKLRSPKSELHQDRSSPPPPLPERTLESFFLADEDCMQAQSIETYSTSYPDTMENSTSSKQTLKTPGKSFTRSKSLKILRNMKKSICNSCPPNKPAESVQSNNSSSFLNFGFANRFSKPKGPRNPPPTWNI

cells = type: functional, cell-based; conditions: HEK-CNG
[13] = target: T3, Tyrosine-protein phosphatase non-receptor type 22; type: functional; remark: listed apart in the source
Galanin receptor type 3 = target: T4, Galanin receptor type 3 (Homo sapiens, UniProt O60755); test: Fluorescence-based cell-based primary high throughput dose response assay to identify antagonists of the Galanin Receptor 3 (GalR3).; type: functional
T4 sequence (O60755 whole entry): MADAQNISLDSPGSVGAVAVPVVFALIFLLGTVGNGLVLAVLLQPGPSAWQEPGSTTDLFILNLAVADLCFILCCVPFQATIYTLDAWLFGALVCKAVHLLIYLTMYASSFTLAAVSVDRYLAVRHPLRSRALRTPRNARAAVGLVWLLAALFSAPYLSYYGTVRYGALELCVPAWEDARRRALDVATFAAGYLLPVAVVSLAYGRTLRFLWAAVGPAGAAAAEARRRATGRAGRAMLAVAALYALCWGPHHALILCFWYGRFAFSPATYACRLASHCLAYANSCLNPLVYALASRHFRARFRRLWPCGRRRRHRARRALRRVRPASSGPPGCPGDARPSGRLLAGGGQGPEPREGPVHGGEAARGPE

[14] = cytotoxicity toward NIH3T3 fibroblasts, dose response, counter-screen, cell-based, ATP luminescence, mouse fibroblasts (AID 2010); type: functional;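 also: cells exposed to compound for about 90 hours before reading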
[15] = inhibitors of intracellular T. cruzi replication, confirmation, NIH3T3 host cells, beta-gal luminescence (AID 2044); type: functional, cell-based;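 also: intracellular parasites grown in NIH/3T3 mouse fibroblasts as host cells; luminescent beta-galactosidase reporter signal from transgenic T. cruzi replicating inside host cells; inhibitors lower the luminescence signal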
[16] = target: T5, Tyrosine-protein phosphatase non-receptor type 7 (Homo sapiens, UniProt P35236); type: functional
T5 sequence (P35236 whole entry): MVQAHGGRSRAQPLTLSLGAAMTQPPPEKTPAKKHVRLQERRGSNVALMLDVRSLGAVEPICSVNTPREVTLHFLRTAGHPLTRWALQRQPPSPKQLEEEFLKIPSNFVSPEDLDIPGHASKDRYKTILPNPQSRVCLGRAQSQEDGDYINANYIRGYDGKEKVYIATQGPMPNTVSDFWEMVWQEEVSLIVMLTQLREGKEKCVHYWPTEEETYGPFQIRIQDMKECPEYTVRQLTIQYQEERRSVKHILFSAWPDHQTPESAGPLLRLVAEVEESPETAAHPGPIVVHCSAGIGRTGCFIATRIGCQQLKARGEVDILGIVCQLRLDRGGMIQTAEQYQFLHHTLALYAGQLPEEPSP

[17] = Shn3 3'UTR reporter inhibitors, dose response, cell-based, Clone20 osteoblasts, firefly luciferase, cherry-picked (AID 624132); type: functional;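 also: firefly luciferase luminescence from reporter carrying the Shn3 3'UTR in osteoblasts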
[18] = target: T6, Delta-type opioid receptor (Homo sapiens, UniProt P41143); test: HTS Image-Based Screen for Antagonists of the DOR Receptor. [Related pubchem assays (depositor defined):AID1777, AID1785, AID1786, AID2133]; type: functional
Mu-type opioid receptor = Mu-type opioid receptor (Homo sapiens, UniProt P35372); test: HTS Image-Based Screen for Agonists of the MOR Receptor. [Related pubchem assays (depositor defined):AID1777, AID1785, AID1786, AID2133]; type: functional;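 also: imaging of beta-arrestin GFP recruitment into spots after receptor activation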
Ion channel NompC = Ion channel NompC (Danio rerio, UniProt Q7T1G6); test: Fluorescence counterscreen assay for TRPML3 agonists: dose response cell-based high-throughput screening assay to identify agonists of the transient receptor potential channel N1 (TRPN1). [Related pubchem assays: 1526, 1424, 1448 ]; type: functional
[19] = HepG2 cell cytotoxicity, dose response, cytotoxicity control for Shn3 inhibitor project, CellTiter-Glo, cherry-picked (AID 624134); type: functional, cell-based
Mucolipin-3 = target: T7, Mucolipin-3 (Homo sapiens, UniProt Q8TDD5); test: Dose response cell-based high-throughput screening assay for agonists of the transient receptor potential channel ML3 (TRPML3). [Related pubchem assays: 1526, 1424, 1448 ]; type: functional
T7 sequence (Q8TDD5 whole entry): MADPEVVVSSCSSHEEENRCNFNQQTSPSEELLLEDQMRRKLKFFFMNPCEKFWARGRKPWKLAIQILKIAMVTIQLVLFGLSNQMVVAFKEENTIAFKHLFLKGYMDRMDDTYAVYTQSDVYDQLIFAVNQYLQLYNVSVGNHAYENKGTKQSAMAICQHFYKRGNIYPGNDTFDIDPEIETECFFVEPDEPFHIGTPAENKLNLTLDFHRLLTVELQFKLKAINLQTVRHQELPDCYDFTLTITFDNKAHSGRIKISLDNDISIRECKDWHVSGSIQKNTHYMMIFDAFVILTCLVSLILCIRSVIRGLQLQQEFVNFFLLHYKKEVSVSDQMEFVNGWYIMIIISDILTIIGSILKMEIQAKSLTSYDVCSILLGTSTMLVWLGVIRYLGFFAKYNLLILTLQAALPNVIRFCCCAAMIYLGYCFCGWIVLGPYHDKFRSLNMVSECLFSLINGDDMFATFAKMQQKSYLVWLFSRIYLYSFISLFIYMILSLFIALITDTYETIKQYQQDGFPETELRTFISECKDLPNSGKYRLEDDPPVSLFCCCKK

[20] = control 3'UTR Renilla luciferase suppression, dose response, counter-screen for Shn3 inhibitor project, cell-based, Clone20-Shn3RL, cherry-picked (AID 624133); type: functional
[21] = target: T8, Kappa-type opioid receptor (Homo sapiens, UniProt P41145); type: functional
[22] = target: T6, Delta-type opioid receptor; test: HTS Image-Based Screen for Agonists of the DOR Receptor. [Related pubchem assays (depositor defined):AID1777, AID1786, AID2133]; type: functional
[23] = target: T8, Kappa-type opioid receptor; type: functional; remark: listed apart in the source

T6 sequence (P41143 whole entry): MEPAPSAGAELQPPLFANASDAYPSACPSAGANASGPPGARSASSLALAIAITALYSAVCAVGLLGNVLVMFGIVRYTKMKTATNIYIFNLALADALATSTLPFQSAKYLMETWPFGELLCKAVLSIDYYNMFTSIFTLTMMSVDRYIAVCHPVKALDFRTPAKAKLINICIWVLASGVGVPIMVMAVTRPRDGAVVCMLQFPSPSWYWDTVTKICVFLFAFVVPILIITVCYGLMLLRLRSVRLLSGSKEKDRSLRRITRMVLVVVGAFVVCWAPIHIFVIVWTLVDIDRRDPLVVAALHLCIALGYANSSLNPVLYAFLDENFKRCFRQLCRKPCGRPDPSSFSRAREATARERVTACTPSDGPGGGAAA
T1 sequence (P09923 whole entry, the tested form may be a part): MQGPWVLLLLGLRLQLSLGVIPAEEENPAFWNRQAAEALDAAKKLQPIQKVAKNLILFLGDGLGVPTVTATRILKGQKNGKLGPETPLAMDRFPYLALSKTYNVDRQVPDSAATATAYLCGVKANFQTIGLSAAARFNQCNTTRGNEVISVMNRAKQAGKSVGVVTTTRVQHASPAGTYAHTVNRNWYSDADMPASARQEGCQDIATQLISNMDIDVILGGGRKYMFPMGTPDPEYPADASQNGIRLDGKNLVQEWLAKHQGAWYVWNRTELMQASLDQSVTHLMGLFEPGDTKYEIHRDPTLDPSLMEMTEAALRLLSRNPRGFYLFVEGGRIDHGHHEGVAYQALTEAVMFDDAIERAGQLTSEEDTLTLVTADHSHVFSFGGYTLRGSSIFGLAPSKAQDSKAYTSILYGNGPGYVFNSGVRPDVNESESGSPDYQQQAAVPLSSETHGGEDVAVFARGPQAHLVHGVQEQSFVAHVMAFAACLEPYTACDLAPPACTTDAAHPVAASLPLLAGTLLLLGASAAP
T8 sequence (P41145 whole entry): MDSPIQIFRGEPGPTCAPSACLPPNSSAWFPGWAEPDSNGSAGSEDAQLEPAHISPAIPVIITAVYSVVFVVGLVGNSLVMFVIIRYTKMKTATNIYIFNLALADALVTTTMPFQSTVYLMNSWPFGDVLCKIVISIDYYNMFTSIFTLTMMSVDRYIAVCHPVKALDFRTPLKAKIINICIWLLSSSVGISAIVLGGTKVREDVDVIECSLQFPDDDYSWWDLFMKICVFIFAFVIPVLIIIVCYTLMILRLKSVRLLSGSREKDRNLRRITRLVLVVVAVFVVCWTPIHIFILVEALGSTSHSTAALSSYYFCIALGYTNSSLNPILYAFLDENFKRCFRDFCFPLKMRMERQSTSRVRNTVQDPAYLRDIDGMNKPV
Chain of Nucleotide-binding oligomerization domain-containing protein 2 (Q9HC29 whole entry, the tested form may be a part): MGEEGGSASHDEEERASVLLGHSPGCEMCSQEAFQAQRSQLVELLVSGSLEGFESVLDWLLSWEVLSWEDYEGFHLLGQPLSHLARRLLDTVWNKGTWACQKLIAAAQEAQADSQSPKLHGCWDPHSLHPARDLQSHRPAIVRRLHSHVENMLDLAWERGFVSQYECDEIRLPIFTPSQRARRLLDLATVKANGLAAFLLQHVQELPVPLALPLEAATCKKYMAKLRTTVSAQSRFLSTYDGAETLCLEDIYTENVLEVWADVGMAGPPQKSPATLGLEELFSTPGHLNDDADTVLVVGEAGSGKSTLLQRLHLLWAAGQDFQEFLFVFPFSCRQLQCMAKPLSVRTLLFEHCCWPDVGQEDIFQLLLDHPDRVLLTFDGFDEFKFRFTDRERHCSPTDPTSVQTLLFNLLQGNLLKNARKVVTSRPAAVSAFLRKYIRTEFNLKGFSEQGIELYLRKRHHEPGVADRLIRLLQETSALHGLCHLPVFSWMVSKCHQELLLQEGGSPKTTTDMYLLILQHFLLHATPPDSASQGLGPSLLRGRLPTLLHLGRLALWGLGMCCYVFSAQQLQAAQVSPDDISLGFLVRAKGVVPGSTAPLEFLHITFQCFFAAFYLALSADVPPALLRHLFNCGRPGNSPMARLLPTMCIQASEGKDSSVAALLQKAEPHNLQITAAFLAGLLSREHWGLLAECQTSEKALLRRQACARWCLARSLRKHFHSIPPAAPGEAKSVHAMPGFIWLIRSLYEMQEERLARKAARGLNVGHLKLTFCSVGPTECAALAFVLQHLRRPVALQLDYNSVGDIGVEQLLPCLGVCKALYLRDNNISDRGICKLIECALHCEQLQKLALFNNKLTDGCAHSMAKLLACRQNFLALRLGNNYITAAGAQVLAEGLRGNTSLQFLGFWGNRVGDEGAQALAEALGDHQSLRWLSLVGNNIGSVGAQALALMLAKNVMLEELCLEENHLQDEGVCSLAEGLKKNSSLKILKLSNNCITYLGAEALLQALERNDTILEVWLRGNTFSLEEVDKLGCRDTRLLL
Chain of Sphingosine 1-phosphate receptor 5 (Q9H228 whole entry): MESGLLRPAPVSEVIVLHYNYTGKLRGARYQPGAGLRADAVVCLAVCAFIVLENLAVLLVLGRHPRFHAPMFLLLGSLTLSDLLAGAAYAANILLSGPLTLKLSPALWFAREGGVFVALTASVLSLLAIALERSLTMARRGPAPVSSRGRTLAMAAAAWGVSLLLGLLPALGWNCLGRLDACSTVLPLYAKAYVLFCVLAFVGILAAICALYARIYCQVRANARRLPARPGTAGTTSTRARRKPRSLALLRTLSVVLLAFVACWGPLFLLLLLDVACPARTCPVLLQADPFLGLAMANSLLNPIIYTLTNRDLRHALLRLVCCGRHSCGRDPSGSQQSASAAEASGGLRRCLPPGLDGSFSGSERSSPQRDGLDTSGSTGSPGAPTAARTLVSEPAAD
Chain of Sphingosine 1-phosphate receptor 2 (O95136 whole entry): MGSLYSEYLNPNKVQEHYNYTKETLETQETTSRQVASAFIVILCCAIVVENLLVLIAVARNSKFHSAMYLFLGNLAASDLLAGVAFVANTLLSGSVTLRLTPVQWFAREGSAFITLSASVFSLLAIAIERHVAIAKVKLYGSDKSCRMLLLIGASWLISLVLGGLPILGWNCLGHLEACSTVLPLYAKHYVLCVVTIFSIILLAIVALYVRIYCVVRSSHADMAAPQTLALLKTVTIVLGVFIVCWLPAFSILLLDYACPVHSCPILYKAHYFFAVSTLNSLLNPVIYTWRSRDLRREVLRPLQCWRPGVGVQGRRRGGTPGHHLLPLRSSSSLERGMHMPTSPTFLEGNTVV
Chain of Mu-type opioid receptor (P35372 whole entry): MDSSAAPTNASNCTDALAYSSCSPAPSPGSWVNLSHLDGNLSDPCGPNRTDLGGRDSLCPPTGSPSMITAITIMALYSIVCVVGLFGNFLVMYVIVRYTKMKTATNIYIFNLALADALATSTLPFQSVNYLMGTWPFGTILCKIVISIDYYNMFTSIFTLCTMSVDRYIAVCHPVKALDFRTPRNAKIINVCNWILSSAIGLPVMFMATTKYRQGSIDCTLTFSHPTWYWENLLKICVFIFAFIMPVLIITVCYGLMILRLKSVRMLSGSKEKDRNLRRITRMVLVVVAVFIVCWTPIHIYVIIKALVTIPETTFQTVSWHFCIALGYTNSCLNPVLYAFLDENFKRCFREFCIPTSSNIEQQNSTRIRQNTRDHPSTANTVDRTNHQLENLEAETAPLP
Chain of Sphingosine 1-phosphate receptor 3 (Q99500 whole entry): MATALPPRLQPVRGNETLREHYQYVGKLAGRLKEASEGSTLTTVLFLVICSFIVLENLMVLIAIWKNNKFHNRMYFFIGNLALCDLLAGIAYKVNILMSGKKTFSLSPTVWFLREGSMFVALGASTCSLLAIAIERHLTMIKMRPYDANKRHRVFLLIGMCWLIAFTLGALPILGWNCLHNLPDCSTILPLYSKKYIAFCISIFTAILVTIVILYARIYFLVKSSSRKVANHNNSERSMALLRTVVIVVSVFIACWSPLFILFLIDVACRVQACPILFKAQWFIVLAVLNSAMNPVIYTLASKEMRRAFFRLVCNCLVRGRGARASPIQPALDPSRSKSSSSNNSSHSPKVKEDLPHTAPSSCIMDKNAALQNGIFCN
Chain of Tumor necrosis factor (P01375 whole entry): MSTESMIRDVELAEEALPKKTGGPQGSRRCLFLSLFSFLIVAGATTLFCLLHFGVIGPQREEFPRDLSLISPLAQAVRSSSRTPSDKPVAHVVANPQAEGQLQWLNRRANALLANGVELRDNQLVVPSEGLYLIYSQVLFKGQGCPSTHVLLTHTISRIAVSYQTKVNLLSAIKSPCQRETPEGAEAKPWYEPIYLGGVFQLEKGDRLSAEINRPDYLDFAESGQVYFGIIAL
Chain of Intestinal-type alkaline phosphatase (Mus musculus, UniProt P24822) (P24822 whole entry, the tested form may be a part): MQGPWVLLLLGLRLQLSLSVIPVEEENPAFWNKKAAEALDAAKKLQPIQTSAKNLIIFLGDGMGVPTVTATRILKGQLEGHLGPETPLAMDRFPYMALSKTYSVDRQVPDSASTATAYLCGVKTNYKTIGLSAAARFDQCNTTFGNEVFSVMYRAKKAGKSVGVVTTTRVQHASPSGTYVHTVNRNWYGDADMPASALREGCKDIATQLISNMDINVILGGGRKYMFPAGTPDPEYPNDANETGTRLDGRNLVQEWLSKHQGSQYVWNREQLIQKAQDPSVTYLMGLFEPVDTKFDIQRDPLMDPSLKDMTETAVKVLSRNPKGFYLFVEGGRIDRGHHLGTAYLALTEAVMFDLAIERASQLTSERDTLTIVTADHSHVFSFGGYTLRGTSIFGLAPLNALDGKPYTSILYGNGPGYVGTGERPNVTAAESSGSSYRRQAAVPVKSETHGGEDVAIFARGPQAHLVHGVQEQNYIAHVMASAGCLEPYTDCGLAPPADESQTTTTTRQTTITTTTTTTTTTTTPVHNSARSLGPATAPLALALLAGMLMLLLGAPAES

IC50 (SUMO E1/E2): > 100 µM (inactive)
Structure (SMILES): C/C(=N\OCc1nc2ccccc2c(=O)n1/N=C/c1ccc(Cl)cc1)c1ccccc1

Structure (SMILES): Cc1cc(Br)ccc1SCC(=O)OC/C(O)=C(\C#N)c1nc2ccccc2[nH]1
EC50 [1]: 27.5 µM (active) | IC50 [2]: > 20 µM (inactive) | EC50 [3]: 13.4 µM (active) | IC50 (HEK293): > 20 µM (inactive) | EC50 [4]: 24.1 µM (active) | IC50 (Tumor necrosis factor): > 20 µM (inactive) | IC50 [5]: > 100 µM (inactive) | IC50 [6]: > 20 µM (inactive)

IC50 [8]: > 25 µM (inactive) | IC50 [9]: > 25 µM (inactive) | IC50 [10]: > 25 µM (inactive) | IC50 [11]: > 25 µM (inactive)
Structure (SMILES): CCc1cccc(CC)c1NC(=O)c1ccc(-c2cc(Cl)ccc2Cl)o1
CC50 [7]: > 20 µM (inactive)

Structure (SMILES): COC(=O)C1CCN(Cc2ccc(OCCCN3CCN(c4ccc([N+](=O)[O-])cc4)CC3)cc2)CC1
IC50 [12]: > 79.4 µM (inactive) | EC50 (cells): > 29.9 µM (inactive) | IC50 [13]: > 79.4 µM (inactive) | IC50 (Galanin receptor type 3): 1.33 µM (active) | EC50 [14]: > 30 µM (not active) | EC50 [15]: 0.257 µM (active) | IC50 [16]: > 79.4 µM (inactive)

Structure (SMILES): COc1ccc(CCN2C(=O)CS/C2=N\c2ccc(C(C)C)cc2)cc1OC
AC50 [17]: 4.49 µM (active) | IC50 [18]: > 32 µM (inactive) | EC50 (Mu-type opioid receptor): > 32 µM (inactive) | EC50 (Ion channel NompC): > 29.9 µM (not active) | AC50 [19]: 5.37 µM (active) | EC50 (Mucolipin-3): > 29.9 µM (not active) | AC50 [20]: 7.07 µM (active) | pEC50 [21]: 5.23 | EC50 [22]: > 32 µM (inactive) | pEC50 [23]: 5.17

Reference: ChEMBL document CHEMBL1201862, “PubChem BioAssay data set” (2004)
